# Results reported in patent publication US20040013733A1, “Preparation of a biodegradable thermal-sensitive gel system” (Industrial Technology Research Institute, priority 2001, published 2004).
# Test system: blood vessel growth (angiogenesis)
# Assay: The angiogenesis animal model: gel of Example 4 mixed with drug injected to mice, blood vessel growth observed
# Assay type: in vivo
# Details: drug in gel of Example 4, 0.5 mL gel injected, two months old mice, N=2, after 15 days, gel and adjacent tissue
# Procedure: The gel solution prepared according the process of Example 4 was mixed with various drugs listed in tablet at room temperature and is injected (0.5 mL gel each) to two months old mice, N=2. Sacrifice the mice after 15 days and take out the gel and its adjacent tissue to observe the blood vessel growth. The results are listed in table 1 and shown in the color pictures supplemented (please refer to attachments).
# The tissue taken out was observed by electron microscope and the results were shown as FIG. 2.
# In other words, the endothecium cell and blood vessels of the host can develop in the beehive structure of the gel. The results tell us that co-administrate the gel of the present invention and angiogenesis drug did benefit angiogenesis.
substance,measurement,value
"bFGF: angiogenesis-inducing growth factor, 250 ng/ml, mixed with gel of Example 4",Blood vessel growth state,Angiogenesis is present
